Data: patent publication US20030105281A1, “Antimicrobial peptides isolated from mast cells” (priority 2000, published 2003)
≈ marks a conversion by molar mass, not a printed value. Residues, ends and D or L forms follow the SMILES beside them. No end group written: not given here.

How the values were obtained:
[1] = tested on: Aeromonas hydrophilia; assay type: cell-based
Description: (§1) The antimicrobial activity of synthetic piscidin 1, piscidin 2 and piscidin 3 (P1, P2 and P3) was tested against a variety of different bacteria.

[2] = tested on: Enterococcus gallinarum; assay type: cell-based
Description: as §1

[3] = tested on: Pseudomonas aeruginosa
Description: as §1

[4] = assay type: cell-based
Text: (§2) where CC is linked via a disulfide bridge.

[5] = tested on: human pathogens; experiment: Activity of dimeric peptide against human pathogens; assay type: cell-based
Text: as §2

[6] = tested on: bacteria; experiment: Antibacterial activity of synthetic SEQ ID NO: 4 sequence; assay type: cell-based; settings: synthetic sequence with tryptophan as X
Text: [SEQ ID NO: 4], where X is tryptophan or beta-hydroxytryptophan. It is tentatively believed that beta-hydroxytryptophan is present as X in the natural sequence.

[7] = tested on: Enterococcus faecium; assay type: cell-based; settings: Case 00-1437, vancomycin resistant, vanA; MHB
Description: as §1

[8] = tested on: Staphylococcus epidermidis; assay type: cell-based
Description: as §1

[9] = tested on: Streptococcus iniae; assay type: cell-based
Description: as §1

[10] = tested on: Escherichia coli
Description: as §1

[11] = tested on: Staphylococcus aureus
Description: as §1

| Molecule | MBC [1] [µg/mL] | MIC [1] [µg/mL] | MBC [2] [µg/mL] | MIC [2] [µg/mL] | MBC [3] [µg/mL] | MIC [3] [µg/mL] | also measured |
| --- | --- | --- | --- | --- | --- | --- | --- |
| CC[C@H](C)[C@H](NC(=O)CNC(=O)[C@H](CCCNC(=N)N)NC(=O)[C@H](Cc1ccccc1)NC(=O)[C@@H](NC(=O)[C@H](Cc1c[nH]cn1)NC(=O)[C@H](Cc1c[nH]cn1)NC(=O)[C@H](Cc1ccccc1)NC(=O)[C@@H](N)Cc1ccccc1)[C@@H](C)CC)C(=O)N[C@H](C(=O)N[C@@H](Cc1c[nH]cn1)C(=O)N[C@H](C(=O)NCC(=O)N[C@@H](CCCCN)C(=O)N[C@H](C(=O)N[C@H](C(=O)N[C@@H](Cc1c[nH]cn1)C(=O)N[C@@H](CCCNC(=N)N)C(=O)N[C@@H](CC(C)C)C(=O)N[C@H](C(=O)N[C@H](C(=O)NCC(N)=O)[C@@H](C)O)C(C)C)[C@@H](C)CC)[C@@H](C)O)C(C)C)C(C)C [P1] (H-FFHHIFRGIVHVGKTIHRLVTG-NH2; N-terminus assumed) | 0.79 to 1.57 | 0.79 to 1.57 | 12.5 (≈ 4.86 µM) | 12.5 (≈ 4.86 µM) | 12.5 (≈ 4.86 µM) | 12.5 (≈ 4.86 µM) | – |
| HVIGRFIHHFFCCFFHHIFRGIVH (cysteine pairing not given here; also: dimer) [SEQ ID NO: 6] | – | – | – | – | – | – | hemolytic activity [4]: no detectable hemolytic activity; activity against several human pathogens [5]: active against several human pathogens |
| FFRHLFRGAKAIFRGARQGXRAHKVVSRYRNRDVPETDNNQEEP [SEQ ID NO: 4, Endobiotic Family 2 peptide, about 5329 Da, X is tryptophan or beta-hydroxytryptophan] | – | – | – | – | – | – | antibacterial activity [6]: potent antibacterial activity |
| CC[C@H](C)[C@H](NC(=O)CNC(=O)[C@H](CCCNC(=N)N)NC(=O)[C@H](Cc1ccccc1)NC(=O)[C@@H](NC(=O)[C@H](Cc1c[nH]cn1)NC(=O)[C@H](Cc1c[nH]cn1)NC(=O)[C@@H](NC(=O)[C@@H](N)Cc1ccccc1)[C@@H](C)CC)[C@@H](C)CC)C(=O)N[C@H](C(=O)N[C@@H](Cc1c[nH]cn1)C(=O)N[C@@H](C)C(=O)NCC(=O)N[C@@H](CCCNC(=N)N)C(=O)N[C@@H](CO)C(=O)N[C@H](C(=O)NCC(=O)N[C@@H](CCCNC(=N)N)C(=O)N[C@@H](Cc1ccccc1)C(=O)N[C@@H](CC(C)C)C(=O)N[C@H](C(=O)NCC(N)=O)[C@@H](C)O)[C@@H](C)CC)C(C)C [P3] (H-FIHHIFRGIVHAGRSIGRFLTG-NH2; N-terminus assumed) | 1.57 to 3.13 | 1.57 to 3.13 | 50 (≈ 20.1 µM) | 50 (≈ 20.1 µM) | 25 (≈ 10 µM) | 25 (≈ 10 µM) | MIC [7]: 3.13 to 6.25 µg/mL; MIC [8]: 3.13 µg/mL (≈ 1.26 µM); MBC [9]: 3.13 µg/mL (≈ 1.26 µM); MIC [9]: 3.13 µg/mL (≈ 1.26 µM); MBC [10]: 3.13 µg/mL (≈ 1.26 µM); MIC [10]: 3.13 µg/mL (≈ 1.26 µM); MBC [11]: 3.13 µg/mL (≈ 1.26 µM); MIC [11]: 3.13 µg/mL (≈ 1.26 µM) |
